Results as given in PMC13223435, “Synthesis and Antiproliferative Activity against Melanoma Cells of New Heterocyclic Hybrids Based on Pyridine and Pyrimidine Scaffolds” (Current Medicinal Chemistry, 2025).

Experiments:
A375 cells = assay: Annexin V-PE/7-AAD apoptosis assay (Muse); type: cell-based; details: 48 h, early and late apoptotic
Method: In this study, A375 cells were initially seeded into 24-well plates at a density of 1×10^4 cells per well. After 24 hours, the cell culture medium was carefully removed, and a new medium containing 16b and 29 at varying final concentrations (1, 5, and 10 µM) was added, followed by an additional 48-hour incubation. Cells in a medium containing 0.2% DMSO served as the control group. After the treatment period, cells were washed with phosphate-buffered saline (PBS), and both the cell medium and PBS wash were retained. The cells were then detached using trypsin and centrifuged. The resulting cell pellet was suspended in a fresh medium after discarding the supernatant. An equivalent volume of Muse Annexin V & Dead Cell Reagent (Luminex Corporation, Austin, TX, USA) was added and thoroughly mixed through repeated pipetting. The staining procedure was conducted for 20 minutes at room temperature in the absence of light. The Muse Cell Analyzer (Luminex Corporation, Austin, TX, USA) was utilized for analysis. This assay detects phosphatidylserine (PS) on apoptotic cell surfaces using annexin V-PE (phycoerythrin) binding. A 7-AAD (7-aminoactinomycin D) marker was used to assess cell membrane integrity. The dual staining approach enabled the identification of four distinct cell groups: viable (Annexin V-PE− and 7-AAD−), early apoptotic (Annexin V-PE+ and 7-AAD−), late apoptotic/dead (Annexin V-PE+ and 7-AAD+), and primarily nuclear debris (Annexin V-PE− and 7-AAD+). The findings were based on at least three separate experimental runs.

melanoma A375 cells = assay: WST-1 antiproliferative assay; type: cell-based; details: Homo sapiens, A-375
Text: The A375 malignant melanoma cell line (ECACC 88113005, Salisbury, UK) was procured from the European Collection of Authenticated Cell Cultures (ECACC). The primary culture of human dermal fibroblasts (HDF) was derived from skin according to the protocol approved by the Ethical Committee of Pomeranian Medical University in Szczecin (KB-0012/02/18). The detailed protocol of fibroblast isolation, authentication, and cell culture conditions was previously described. Both cell lines were cultivated in a humidified incubator under conditions of 5% CO2 and a temperature of 37°C, using Dulbecco’s modified Eagle’s medium (DMEM) with 4500 mg/L glucose (Sigma-Aldrich Merck Group, St. Louis, MO, USA) enriched with 10% heat-inactivated fetal bovine serum (FBS, EURx, Gdańsk, Poland), 2 mM L-glutamine (Sigma-Aldrich Merck Group, St. Louis, MO, USA), and penicillin-streptomycin solution (Sigma-Aldrich Merck Group, St. Louis, MO, USA). Regular assessments for the presence of mycoplasma were conducted using the MycoAlert® Mycoplasma Detection Kit (Lonza, Rockland, ME, USA).
The evaluation of the antiproliferative activity of the compounds was performed using the Cell Proliferation Reagent WST-1 assay (Roche, Germany). This assay relies on the reduction of tetrazolium salt to formazan, with the final amount of formazan proportional to the number of viable cells. In our study, A375 cells (2×10^3) and HDF (3×10^3) were initially seeded into 96-well plates and cultured in a humidified atmosphere of 5% CO2 at 37°C. 24 hours later, the culture medium was replaced with a medium containing the tested compounds for a 48-hour incubation period at specified final concentrations. […] For control purposes, cells without the tested compounds, which contained only the vehicle (DMSO), were used. Additionally, a blank sample consisting of tested compounds in a medium (without cells) was included. After the 48-hour incubation period, the WST-1 reagent was introduced and allowed to incubate with the cells for 30 minutes. The absorbance was subsequently measured at 450 nm with background correction at 620 nm using a microplate reader (Infinite 200 Pro, Tecan, Männedorf, Switzerland). Cell viability was calculated according to the following formula: [(Atest–Ablank)/ (Acontrol − Ablank)] × 100%. These measurements were conducted in triplicate for at least three independent experiments.
In the screening step, 10 µM solutions of all 33 compounds were tested on A375 cells. […] Selected compounds (2c, 18e, 16b, 29) were tested at concentrations of 0.1, 1, 10, 50, and 100 µM. The IC50 values were determined using an online calculator (AAT Bioquest, Inc., Quest Graph™ IC50 Calculator (v.1). Retrieved from https://www.aatbio.com/tools/IC50-calculator-v1, accessed on: 2022, December 12).

SMILES: COc1cc(Cn2cc(-c3cccs3)ccc2=S)cc(OC)c1OC [Compound 16b]
- percentage of annexin-positive cells (A375 cells; 5 µM): 18.43 ± 2.90%
- percentage of annexin-positive cells (A375 cells; 10 µM): 30.50 ± 1.27%
- activity at 10 µM (melanoma A375 cells; 10 µM, 48 h of treatment, A375, read-out: Cell proliferation (% control)): 42.8 ± 22.9%
- IC50 (melanoma A375 cells; 48 hours of treatment): 1850 ± 440 nM
